Source: US8293488B2, “Method for screening neurogenic agents” (Neuralstem, Inc., priority 2002, dated 2012)

Columns and labels:
Format in all cases: cell-based
[1] = test system: human hippocampal multipotent stem/progenitor cells; assay: Proliferation by Alamar Blue staining of live cells after 7 days of compound treatment; details: 7 days compound treatment, relative to vehicle control
Method: FIG. 4. Examples of proliferation profile of compounds selected from primary screening. Proliferation was measured after compound treatment for 7 days by Alamar Blue staining of live cells per well. Shown are relative values over the vehicle control.
(§1) (1) Undifferentiated human neural stem/progenitor cells were harvested by enzyme treatment.
(§2) (2) The collected cells were seeded at 40,000 cells per well of 96-well plates pre-coated with extracellular matrix proteins (e.g., Biocoat PDL, Fisher). The seeding media is a standard serum-free, growth factor-free, basal media that supports healthy neuronal/glial survival, such as N2 without phenol red.
(§3) (3) Test agents at appropriate concentrations were added to each well on Day 0.
(4) The assay plates were incubated for 7 days, with 50% media change at every other day. On Day 2, 4, and 6 of post-plating, additional increment of the screening agents at appropriate concentrations were added to each well. […]
(6) The fluorescence of the oxidized dye in each well was read by a fluorescent plate reader with the following settings:
Excitation 530 nm, emission 590 nm, cutoff 570 nm The fluorescence level is proportional to the number of respiring cells in the culture and is a measure of a proliferative activity of a test agent (FIG. 2).

[2] = test system: differentiating human hippocampal progenitor cells; assay: Dose-response of neuron number (TuJ1 positive cells, automated cell counter); details: 7 days, 100 picaM to 100 microM
Method: FIG. 6. Examples of neurogenesis profile of compounds selected from primary screening. After 7 days of compound treatment, the cells were stained with TuJ1 for neurons. The absolute number of TuJ1+ neurons per area was quantified and expressed as a relative value to the vehicle treated control.
FIG. 7. Dose-dependent increase in neuron number. Differentiating human hippocampal progenitor cells were treated for 7 days with varying concentrations of “primary hits”. Subsequently, the cells were fixed, stained with TuJ1, and positive cells were quantified by an automated cell counter. Shown are the number of neurons after each treatment normalized against the vehicle control (0 microM=1.0).
(§4) Linearity of dose-response and in vitro neurotoxicity are used to further filter down desired compounds from the primary screen. The dose-response curve measures neurogenesis over a concentration range of 100 picaM to 100 microM. The rationale for this is to eliminate early on those compounds with pronounced toxicity and those without a dose-dependent effect on neurogenesis. […] Table II contains the summary of EC50 of each compound tested.

[3] = test system: differentiating human hippocampal progenitor cells; assay: In vitro neurotoxicity from dose-response curves; details: dose-response up to 100 microM
Text: as §4

[4] = test system: human hippocampal progenitor cells; assay: In vitro neurogenesis assay (primary screen, positive control selection); details: for effective in the neurogenesis assay: growth factors 20 ng/ml, 7 days
Method: FIG. 3A. Influence of known growth factors on proliferation and neurogenesis relative to control. Hippocampal progenitor cells were treated for seven days with differentiation media (without mitogen) in the presence or absence of 20 ng/ml of growth factor dosed every other day. Plates were treated with Alamar Blue as described in Methods, then fixed and stained with antibody (TuJ1) against type III beta-tubulin (neuronal marker). The 96-well plate was read in a fluorescent plate reader. Bars represent the Mean+SD from 4 wells per treatment.
as §1, §2, §3
(4) The assay plates were incubated for 7 days, with 50% media change at every other day. On Day 2, 4, and 6 of post-plating, additional increment of the screening agents at appropriate concentrations were added to each well.
(7) After the alamar blue assay, the cells were fixed and stained with antibodies against neuron-specific antigens according to standard procedures. Typical antigens effective were Type III-beta tubulin and MAP2c.
(§5) (9) As a preliminary detection of positive activities, the overall immunostaining intensity in each well was read by a fluorescence plate reader. For the positive hits, more quantitative analysis was carried out by automated morphometric counting of individual cells.
Thus, the assay can discriminate test agents for selectively having a neurogenic activity. The positive control utilized is leukemia inhibitory factor (LIF), a cytokine growth factor, at 20 ng/ml. The selection of LIF as the positive control is based on its properties to increase by 2-3 fold the number of neurons and glia. This effect validates both the neural stem cell system, in which, should a compound be effective in neurogenesis, the cells respond appropriately by enhanced differentiation and/or mitosis, and the assay method in which such cellular responses can be measured reproducibly and quantifiably.
5,628 synthetic compounds of the type Fused Imidazoles, Aminopyrimidines, Nicotinamides, Aminomethyl Phenoxypiperidines and Aryloxypiperidines are evaluated for their effect on neurogenesis according the assay method described above. […] Those were re-analyzed by quantitative neuron counting. […] The significance level was empirically set at an activity above 30% change over the vehicle control for proliferation and above 10% change for neurogenesis.

[5] = test system: human hippocampal multipotent stem/progenitor cells; assay: Neurogenesis: ratio of TuJ1 stained neurons to total nuclei after 7 days; details: 20 ng/ml, differentiation media without mitogen, manual cell counting, controls 48.5+6.3%
Method: FIG. 3B. LIF effects on hippocampal cell proliferation and neurogenesis by manual cell counting. Hippocampal progenitor cells were treated for seven days with differentiation media (without mitogen) in the presence or absence of 20 ng/ml LIF. Three fields were analyzed per well for total number of cells (DAPI positive nuclei) and for total number of neurons (TUJI positive cells). Bars represent the Mean+SD from 4 wells per treatment. The percentage of neurons calculated for each treatment are as follows: 48.5+6.3% for controls and 53.6+1.15 for LIF. The non-TUJ1 positive cells are mainly astrocytic (GFAP+).
FIG. 5. Example of neurogenesis profile of compounds selected from primary screening. After 7 days of compound treatment, the ratio of neuron number (TuJ1 stained) to the total nuclei number (Hoechst stained) was determined. Shown are the relative ratio of neuron:total cells for each compound over the vehicle control in percentage. […]
(8) The total cell number in each well was quantified by staining the cultures with a nuclear dye such as DAPI or Hoechst according to standard procedures.
as §5

## CCCCNc1c(C2CCN(C(=O)CN(CC(C)C)S(C)(=O)=O)CC2)nc2cnccn12 [NSI-106]
[1]
  Proliferation (% of Control): 211 ± 48 % of Control
[2]
  EC50: 0.1 nM
[3]
  Other Characterization of Toxicity: No Toxicity

## NC(=O)c1cnc(NCc2ccc(Cl)cc2)nc1NCC1CCCCC1 [NSI-144]
[1]
  Proliferation (% of Control): 149 ± 15 % of Control
[2]
  EC50: 1 nM
[3]
  Other Characterization of Toxicity: No Toxicity

## COc1ccc(C2CNC(=O)C2)cc1OC1CCCC1 (stereo not shown) [Rolipram, rolipram, reference compound]
[4]
  effective in the neurogenesis assay: effective

## leukemia inhibitory factor [LIF]
[5]
  percentage of neurons (TUJ1 positive cells of DAPI positive nuclei): 53.6+1.15
[4]; 20 ng/ml
  increase in the number of neurons and glia: 2-3 fold
[4]
  effective in the neurogenesis assay: effective

B1: neurotrophic factor-3 (protein, UniProt P20783 139-257, looked up)
Neurotrophin-3: YAEHKSHRGEYSVCDSESLWVTDKSSAIDIRGHQVTVLGEIKTGNSPVKQYFYETRCKEARPVKNGCRGIDDKHWNSQCKTSQTYVRALTSENNKLVGWRWIRIDTSCVCALSRKIGRT
[4]
  effective in the neurogenesis assay: Only one (leukemia inhibitory factor) was effective

B2: glia-derived neurotrophic factor (protein, UniProt P39905 78-211, looked up)
Glial cell line-derived …: SPDKQMAVLPRRERNRQAAAANPENSRGKGRRGQRGKNRGCVLTAIHLNVTDLGLGYETKEELIFRYCSGSCDAAETTYDKILKNLSRNRRLVSDKVGQACCRPIAFDDDLSFLDDNLVYHILRKHSAKRCGCI
[4]
  effective in the neurogenesis assay: Only one (leukemia inhibitory factor) was effective

B3: brain-derived neurotrophic factor (protein, UniProt P23560 19-247, looked up)
Neurotrophic factor BDNF …: APMKEANIRGQGGLAYPGVRTHGTLESVNGPKAGSRGLTSLADTFEHVIEELLDEDQKVRPNEENNKDADLYTSRVMLSSQVPLEPPLLFLLEEYKNYLDAANMSMRVRRHSDPARRGELSVCDSISEWVTAADKKTAVDMSGGTVTVLEKVPVSKGQLKQYFYETKCNPMGYTKEGCRGIDKRHWNSQCRTTQSYVRALTMDSKKRIGWRFIRIDTSCVCTLTIKRGR
[4]
  effective in the neurogenesis assay: Only one (leukemia inhibitory factor) was effective
